1 compound from paper PMC6297244, “Synthesis and Kinetic evaluation of an azido analogue of methylerythritol phosphate: a Novel Inhibitor of E. coli YgbP/IspD” (Scientific Reports, 2018) can be followed below.

The experiment concerns the target T1, YgbP/IspD (Escherichia coli, UniProt Q46893).
T1 sequence (Q46893 2-236): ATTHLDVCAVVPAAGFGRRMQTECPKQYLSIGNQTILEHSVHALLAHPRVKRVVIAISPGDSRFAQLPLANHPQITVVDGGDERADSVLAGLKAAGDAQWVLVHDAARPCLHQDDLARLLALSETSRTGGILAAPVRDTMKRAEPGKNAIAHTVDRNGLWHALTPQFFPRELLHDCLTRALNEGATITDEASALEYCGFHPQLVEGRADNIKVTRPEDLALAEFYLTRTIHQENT
Nature of the experiment: steady-state inhibition kinetics, malachite green phosphate assay coupled to inorganic pyrophosphatase. Format: biochemical.

Take `[N-]=[N+]=NC[C@](O)(CO)[C@H](O)COP(=O)(O)O` [compound 11, MEPN3]: the Ki (in general, the dissociation constant of the complex between target and ligand, obtained from inhibition or displacement) is 21 ± 3 µM.
